Key:
[1] = system: Glomerella lagenarium (Colletotrichum lagenarium); assay: Glomerella lagenarium (Colletotrichum lagenarium) / liquid culture (anthracnose); type: cell-based; conditions: Colletotrichum orbiculare, PDB potato dextrose broth, 24° C., 3-4 days after application, read-out: control of Glomerella lagenarium (inhibition of growth, photometric)
Description: Example B3: Glomerella lagenarium (Colletotrichum lagenarium)/Liquid Culture (Anthracnose) Conidia of the fungus from cryogenic storage are directly mixed into nutrient broth (PDB potato dextrose broth). After placing a (DMSO) solution of test compound into a microtiter plate (96-well format), the nutrient broth containing the fungal spores is added. The test plates are incubated at 24° C. and the inhibition of growth is measured photometrically 3-4 days after application. […] […]-191.

[2] = system: Monographella nivalis (Microdochium nivale); assay: Monographella nivalis (Microdochium nivale) / liquid culture (foot rot cereals); type: cell-based; conditions: PDB potato dextrose broth, 24° C., 4-5 days after application, read-out: control of Monographella nivalis (inhibition of growth, photometric)
Description: Example B7: Monographella nivalis (Microdochium nivale)/Liquid Culture (Foot Rot Cereals) Conidia of the fungus from cryogenic storage are directly mixed into nutrient broth (PDB potato dextrose broth). After placing a (DMSO) solution of test compound into a microtiter plate (96-well format), the nutrient broth containing the fungal spores is added. The test plates are incubated at 24° C. and the inhibition of growth is determined photometrically 4-5 days after application. […] […]-190.

[3] = system: Mycosphaerella graminicola (Septoria tritici); assay: Mycosphaerella graminicola (Septoria tritici) / liquid culture (Septoria blotch); type: cell-based; conditions: Zymoseptoria tritici, PDB potato dextrose broth, 24° C., 4-5 days after application, read-out: control of Mycosphaerella graminicola (inhibition of growth, photometric)
Description: Example B15: Mycosphaerella graminicola (Septoria tritici)/Liquid Culture (Septoria Blotch) Conidia of the fungus from cryogenic storage are directly mixed into nutrient broth (PDB potato dextrose broth). After placing a (DMSO) solution of test compound into a microtiter plate (96-well format), the nutrient broth containing the fungal spores is added. The test plates are incubated at 24° C. and the inhibition of growth is determined photometrically 4-5 days after application. […] […]-191.

[4] = system: Blumeria graminis f. sp. tritici (Erysiphe graminis f. sp. tritici); assay: Blumeria graminis f. sp. tritici / wheat / leaf disc preventative (powdery mildew on wheat); type: in vivo; conditions: foliar, wheat leaf segments cv. Kanzler, inoculated 1 day after application, assessed 6-8 days after application, read-out: control of Blumeria graminis f. sp. tritici (percent disease control compared to untreated)
Source text: Example B4: Blumeria graminis f. sp. tritici (Erysiphe graminis f. sp. tritici)/Wheat/Leaf Disc Preventative (Powdery Mildew on Wheat) Wheat leaf segments cv. Kanzler are placed on agar in a multiwell plate (24-well format) and sprayed with the formulated test compound diluted in water. The leaf disks are inoculated by shaking powdery mildew infected plants above the test plates 1 day after application. […] […]-192.

Structure (SMILES)	inhibition at 20 ppm [1] [%]	inhibition at 20 ppm [2] [%]	inhibition at 20 ppm [3] [%]	pest or weed control at 200 ppm [4] [%]
COc1ccc(Nc2cnsc2)nc1C(=O)NCc1ccc(Cl)cc1 [Compound P-37, N-[(4-chlorophenyl)methyl]-6-(isothiazol-4-ylamino)-3-methoxy-pyridine-2-carboxamide]	≥ 80	≥ 80	≥ 80	–
COc1ccc(Nc2cc(F)nc(F)c2)nc1C(=O)NCc1cncn1Cc1ccccc1 [Compound P-48, N-[(3-benzylimidazol-4-yl)methyl]-6-[(2,6-difluoro-4-pyridyl)amino]-3-methoxy-pyridine-2-carboxamide]	–	–	–	≥ 80
COc1ccc(Nc2cc(F)cc(F)c2)nc1C(=O)NCC1(c2ccc(Cl)nc2)CC1 [Compound P-73, N-[[1-(6-chloro-3-pyridyl)cyclopropyl]methyl]-6-(3,5-difluoroanilino)-3-methoxy-pyridine-2-carboxamide]	≥ 80	≥ 80	≥ 80	–
CC1(C)CCC1NC(=O)c1nc(Nc2ccnc(F)c2)ccc1O (stereo not shown) [Compound P-18, N-(2,2-dimethylcyclobutyl)-6-[(2-fluoro-4-pyridyl)amino]-3-hydroxy-pyridine-2-carboxamide]	≥ 80	≥ 80	≥ 80	–
CCON=C(CNC(=O)c1nc(Nc2cc(F)cc(F)c2)ccc1OC)c1ncc(Cl)cc1Cl [Compound P-75, N-[2-(3,5-dichloro-2-pyridyl)-2-ethoxyimino-ethyl]-6-(3,5-difluoroanilino)-3-methoxy-pyridine-2-carboxamide]	≥ 80	≥ 80	≥ 80	–
C#CCOc1ccc(Nc2cc(F)cc(F)c2)nc1C(=O)NC(C)(C)C [Compound P-96, N-tert-butyl-6-(3,5-difluoroanilino)-3-prop-2-ynoxy-pyridine-2-carboxamide]	–	≥ 80	≥ 80	–
COc1ccc(Nc2cc(F)nc(F)c2)nc1C(=O)NC1COC(C2CC2)C1 (stereo not shown) [Compound P-50, N-(5-cyclopropyltetrahydrofuran-3-yl)-6-[(2,6-difluoro-4-pyridyl)amino]-3-methoxy-pyridine-2-carboxamide]	–	–	–	≥ 80
COc1ccc(Nc2cc(F)nc(F)c2)nc1C(=O)NCc1nn(C)c2ncccc12 [Compound P-51, 6-[(2,6-difluoro-4-pyridyl)amino]-3-methoxy-N-[(1-methylpyrazolo[3,4-b]pyridin-3-yl)methyl]pyridine-2-carboxamide]	–	–	–	≥ 80
COc1ccc(Nc2cncnc2)nc1C(=O)NC(C)(C)C [Compound P-166, N-tert-butyl-3-methoxy-6-(pyrimidin-5-ylamino)pyridine-2-carboxamide]	–	–	–	≥ 80
COc1ccc(Nc2ccc(F)cc2)nc1C(=O)NCC(C)(C)C [Compound P-133, N-(2,2-dimethylpropyl)-6-(4-fluoroanilino)-3-methoxy-pyridine-2-carboxamide]	≥ 80	≥ 80	≥ 80	–
CC1(C)CCC1NC(=O)c1nc(Nc2ccccc2)ccc1O (stereo not shown) [Compound P-16, 6-anilino-N-(2,2-dimethylcyclobutyl)-3-hydroxy-pyridine-2-carboxamide]	≥ 80	≥ 80	≥ 80	–
COc1ccc(Nc2cc(F)nc(F)c2)nc1C(=O)NC1C2CCOC2C1(C)C (stereo not shown) [Compound P-54, 6-[(2,6-difluoro-4-pyridyl)amino]-N-(7,7-dimethyl-2-oxabicyclo[3.2.0]heptan-6-yl)-3-methoxy-pyridine-2-carboxamide]	–	–	–	≥ 80
COc1ccc(Nc2cc(F)cc(F)c2)nc1C(=O)NC1CC2(COC2)C1 [Compound P-64, 6-(3,5-difluoroanilino)-3-methoxy-N-(2-oxaspiro[3.3]heptan-6-yl)pyridine-2-carboxamide]	–	–	–	≥ 80
COc1ccc(Nc2cnsc2)nc1C(=O)NCCOc1ccc(Cl)cc1Cl [Compound P-39, N-[2-(2,4-dichlorophenoxy)ethyl]-6-(isothiazol-4-ylamino)-3-methoxy-pyridine-2-carboxamide]	≥ 80	≥ 80	≥ 80	–
COc1ccc(Nc2cccc(C)c2)nc1C(=O)NCC(C)(C)C [Compound P-140, N-(2,2-dimethylpropyl)-3-methoxy-6-(3-methylanilino)pyridine-2-carboxamide]	≥ 80	≥ 80	≥ 80	–
COc1ccc(Nc2cc(F)nc(F)c2)nc1C(=O)NC1(C)CCOC1 (stereo not shown) [Compound P-124, 6-[(2,6-difluoro-4-pyridyl)amino]-3-methoxy-N-(3-methyltetrahydrofuran-3-yl)pyridine-2-carboxamide]	–	–	–	≥ 80
COc1cnc(Nc2cc(F)nc(F)c2)nc1C(=O)NC1CCC1(C)C (stereo not shown) [Compound P-11, 2-[(2,6-difluoro-4-pyridyl)amino]-N-(2,2-dimethylcyclobutyl)-5-methoxy-pyrimidine-4-carboxamide]	–	–	–	≥ 80
COc1ccc(Nc2cc(F)nc(F)c2)nc1C(=O)NCC1(C)CCOC1 (stereo not shown) [Compound P-53, 6-[(2,6-difluoro-4-pyridyl)amino]-3-methoxy-N-[(3-methyltetrahydrofuran-3-yl)methyl]pyridine-2-carboxamide]	–	–	–	≥ 80
COc1cnc(Nc2cc(F)cc(F)c2)nc1C(=O)NCCC(C)C [Compound P-8, 2-(3,5-difluoroanilino)-N-isopentyl-5-methoxy-pyrimidine-4-carboxamide]	≥ 80	≥ 80	≥ 80	–
COc1ccc(NCC2CC2)nc1C(=O)NCC(C)(C)C [Compound P-40, 6-(cyclopropylmethylamino)-N-(2,2-dimethylpropyl)-3-methoxy-pyridine-2-carboxamide]	–	≥ 80	≥ 80	–
COc1ccc(Nc2cnsc2)nc1C(=O)NC(C)COc1cc(F)cc(F)c1 (stereo not shown) [Compound P-38, N-[2-(3,5-difluorophenoxy)-1-methyl-ethyl]-6-(isothiazol-4-ylamino)-3-methoxy-pyridine-2-carboxamide]	–	≥ 80	≥ 80	–
CC1(C)CCC1NC(=O)c1nc(Nc2cc(F)cc(F)c2)ccc1O (stereo not shown) [Compound P-2, 6-(3,5-difluoroanilino)-N-(2,2-dimethylcyclobutyl)-3-hydroxy-pyridine-2-carboxamide]	≥ 80	≥ 80	≥ 80	–
COc1ccc(Nc2ccc(Cl)c(Cl)c2)nc1C(=O)NCC(C)(C)C [Compound P-131, 6-(3,4-dichloroanilino)-N-(2,2-dimethylpropyl)-3-methoxy-pyridine-2-carboxamide]	≥ 80	≥ 80	–	–
COc1ccc(NCC(C)(C)C)nc1C(=O)NCC(C)(C)C [Compound P-43, N-(2,2-dimethylpropyl)-6-(2,2-dimethylpropylamino)-3-methoxy-pyridine-2-carboxamide]	–	≥ 80	≥ 80	–
O=C(NC1CCC12CCCC2)c1nc(Nc2cc(F)nc(F)c2)ccc1O (stereo not shown) [Compound P-3, 6-[(2,6-difluoro-4-pyridyl)amino]-3-hydroxy-N-spiro[3.4]octan-3-yl-pyridine-2-carboxamide]	≥ 80	≥ 80	≥ 80	–
